Tests used:
[1] = target: EGFR (T790M) (Homo sapiens, UniProt P00533, T790M); assay: In vitro kinase assay, EGFR gatekeeper mutant; assay type: biochemical; details: 1 μM
Description: FIG. 10F. Selectivity profiles for a subset of kinases. The gatekeeper mutant alleles of RET, ABL1, and EGFR are V804L, T315I and T790M, respectively.
Using in vitro kinase assays we tested AD57, AD36, and AD58 at 1 μM for activity against approximately one-half of the human kinome (FIG. 1E): 165 Ser/Thr kinases, 91 Tyr kinases, and 10 PI kinases were assayed, totaling 266 kinases (244 distinct kinases plus 22 mutant isoforms; see FIG. 6A-6C, FIG. 7A-7F, and FIG. 8 for measured inhibition values).

[2] = test system: TPC1 cells; assay: AnnexinV/PI flow cytometry apoptosis assay in TPC1 cells; assay type: cell-based, human
Description: FIG. 25. TPC1 cells were grown in 6 well dishes at 70-80% confluence in growth media supplemented with 10% FBS. TPC1 cells were treated with either AD80, the MEK inhibitor PD325901 or a combination of both inhibitors at indicated concentrations for 72 h. Induction of apoptosis was measured using flow cytometry based counting of AnnexinV/PI positive cells.

[3] = target: T1, RET fusion protein CCDC6-RET (Homo sapiens, UniProt P07949); assay: RET fusion dephosphorylation in TPC1 whole cell lysates; assay type: cell-based
T1 construct: endogenous in cells; host or cells: TPC1 thyroid cancer cells; the other entry of the earlier key: CCDC6 (Q16204, Coiled-coil domain-containing protein 6)
T1 sequence (P07949 with tags, fused parts or gaps): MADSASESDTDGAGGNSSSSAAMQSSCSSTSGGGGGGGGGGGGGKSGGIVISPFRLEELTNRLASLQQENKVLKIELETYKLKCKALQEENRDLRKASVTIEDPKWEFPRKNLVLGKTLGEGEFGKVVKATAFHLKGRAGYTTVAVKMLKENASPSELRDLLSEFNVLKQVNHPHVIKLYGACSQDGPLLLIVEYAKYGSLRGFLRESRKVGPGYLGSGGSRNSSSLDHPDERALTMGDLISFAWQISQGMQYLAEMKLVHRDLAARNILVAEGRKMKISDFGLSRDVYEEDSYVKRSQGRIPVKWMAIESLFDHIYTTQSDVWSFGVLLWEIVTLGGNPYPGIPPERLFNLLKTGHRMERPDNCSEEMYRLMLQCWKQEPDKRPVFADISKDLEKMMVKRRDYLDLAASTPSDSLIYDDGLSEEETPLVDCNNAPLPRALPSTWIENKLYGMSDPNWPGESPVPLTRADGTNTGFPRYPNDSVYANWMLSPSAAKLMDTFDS
Description: FIG. 24. Whole cell lysates of TPC1 cells were extracted after treatment with AD80 at indicated concentrations and given time points. TPC1 cells were grown in 6 cm dishes at 70-80% confluence in growth media supplemented with 10% FBS. AD80 treatment leads to dephosphorylation of the RET fusion protein at low nanomolar concentrations <10 nM. The inhibition of RET results in dephosphorylation of downstream signaling (PI3K, MAPK).

EGFR (T790M), sequence (P00533 25-1210 T790M): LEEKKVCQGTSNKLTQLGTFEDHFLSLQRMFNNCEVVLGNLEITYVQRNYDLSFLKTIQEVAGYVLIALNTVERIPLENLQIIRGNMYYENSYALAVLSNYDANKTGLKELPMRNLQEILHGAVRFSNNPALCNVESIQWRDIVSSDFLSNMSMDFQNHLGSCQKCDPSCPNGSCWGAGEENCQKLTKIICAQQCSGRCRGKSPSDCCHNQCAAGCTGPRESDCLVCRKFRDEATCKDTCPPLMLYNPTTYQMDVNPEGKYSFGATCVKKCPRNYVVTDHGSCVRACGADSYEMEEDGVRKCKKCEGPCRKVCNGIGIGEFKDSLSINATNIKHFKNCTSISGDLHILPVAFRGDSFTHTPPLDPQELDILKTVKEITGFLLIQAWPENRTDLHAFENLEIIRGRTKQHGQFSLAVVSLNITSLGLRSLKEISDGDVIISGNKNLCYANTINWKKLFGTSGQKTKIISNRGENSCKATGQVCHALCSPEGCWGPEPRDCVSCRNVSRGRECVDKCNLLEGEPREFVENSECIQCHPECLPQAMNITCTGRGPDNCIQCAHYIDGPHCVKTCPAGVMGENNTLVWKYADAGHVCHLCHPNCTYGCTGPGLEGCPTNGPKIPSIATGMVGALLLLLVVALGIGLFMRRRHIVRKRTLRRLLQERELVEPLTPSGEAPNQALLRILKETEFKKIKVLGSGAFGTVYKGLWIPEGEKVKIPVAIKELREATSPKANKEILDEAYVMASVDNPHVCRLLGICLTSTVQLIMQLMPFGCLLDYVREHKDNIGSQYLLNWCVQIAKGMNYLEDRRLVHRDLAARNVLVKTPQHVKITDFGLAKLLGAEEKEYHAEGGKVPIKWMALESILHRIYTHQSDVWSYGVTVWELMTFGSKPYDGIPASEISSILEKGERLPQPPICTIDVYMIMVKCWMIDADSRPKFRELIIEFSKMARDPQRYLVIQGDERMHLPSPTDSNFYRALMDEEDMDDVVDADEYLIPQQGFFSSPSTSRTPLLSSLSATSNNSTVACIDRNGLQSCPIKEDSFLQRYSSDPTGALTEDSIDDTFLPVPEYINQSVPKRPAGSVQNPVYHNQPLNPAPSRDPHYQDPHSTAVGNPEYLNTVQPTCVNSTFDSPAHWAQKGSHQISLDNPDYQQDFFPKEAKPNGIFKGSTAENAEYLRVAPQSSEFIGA

SMILES	inhibition of EGFR (T790M) versus wild type [1]	induction of apoptosis (AnnexinV/PI positive cells) ([2]; combination with MEK inhibitor PD325901, 72 h)	induction of apoptosis (AnnexinV/PI positive cells) ([2]; single agent, 72 h)	concentration leading to dephosphorylation of the RET fusion protein [3]
CC(C)n1nc(-c2ccc(NC(=O)Nc3cccc(C(F)(F)F)c3)cc2)c2c(N)ncnc21 [AD57]	retained or improved on inhibition			
CC(C)n1nc(-c2ccc(NC(=O)Nc3cc(C(F)(F)F)ccc3F)cc2)c2c(N)ncnc21 [AD80]		robust induction of apoptosis	does not lead to induction of apoptosis	< 10 nM

Source: patent US9321772B2, “Substituted pyrazolo[3,4-D]pyrimidines and uses thereof” (The Regents of the University of California, priority 2011, dated 2016)
